Laboratory results: the NIST ThermoML archive (doi:10.1016/j.jct.2004.09.021)
± gives the expanded uncertainty stated by the source.

Tests used:
[1] = xn = mol fraction of the nth substance listed; settings: 101 kPa, Liquid
[2] = refractive index (Na D-line) (dimensionless); xn = mol fraction of the nth substance listed; settings: 101 kPa, Liquid

CCCCCCCCC [nonane] + COc1ccccc1
x2 = 0
Settings | mass density, 293.15 K [kg/m3] | mass density, 298.15 K [kg/m3] | mass density, 303.15 K [kg/m3] | refractive index, 293.15 K | refractive index, 298.15 K | refractive index, 303.15 K | viscosity, 293.15 K [mPa·s] | viscosity, 298.15 K [mPa·s] | viscosity, 303.15 K [mPa·s]
[1] | 717.59 ± 2.9 | 713.71 ± 3 | 709.81 ± 3 | – | – | – | 0.7136 ± 0.013 | 0.6715 ± 0.012 | 0.6307 ± 0.011
[2] | – | – | – | 1.404 ± 0.0009 | 1.4027 ± 0.0009 | 1.4002 ± 0.001 | – | – | –

COc1ccccc1 [anisole] + CCCCCCCCCC
Settings | mass density, 293.15 K [kg/m3] | mass density, 298.15 K [kg/m3] | mass density, 303.15 K [kg/m3] | refractive index, 293.15 K | refractive index, 298.15 K | refractive index, 303.15 K | viscosity, 293.15 K [mPa·s] | viscosity, 298.15 K [mPa·s] | viscosity, 303.15 K [mPa·s]
[1], x1 = 0.0846 | 742.22 ± 0.78 | 738.35 ± 0.78 | 734.48 ± 0.79 | – | – | – | 0.8966 ± 0.015 | 0.8362 ± 0.015 | 0.7797 ± 0.014
[1], x1 = 0.173 | 756.19 ± 0.76 | 752.25 ± 0.76 | 748.48 ± 0.77 | – | – | – | 0.8837 ± 0.015 | 0.8195 ± 0.014 | 0.7679 ± 0.013
[1], x1 = 0.2574 | 770.86 ± 0.74 | 766.87 ± 0.74 | 763.13 ± 0.75 | – | – | – | 0.865 ± 0.015 | 0.8019 ± 0.014 | 0.7542 ± 0.013
[1], x1 = 0.3675 | 792.19 ± 0.71 | 788.11 ± 0.71 | 784.45 ± 0.72 | – | – | – | 0.8512 ± 0.015 | 0.7887 ± 0.014 | 0.7392 ± 0.013
[1], x1 = 0.4546 | 811.1 ± 0.68 | 806.89 ± 0.69 | 803.36 ± 0.69 | – | – | – | 0.8492 ± 0.015 | 0.7883 ± 0.014 | 0.7322 ± 0.013
[1], x1 = 0.5661 | 838.25 ± 0.65 | 833.93 ± 0.65 | 830.59 ± 0.66 | – | – | – | 0.8679 ± 0.015 | 0.801 ± 0.014 | 0.7387 ± 0.013
[1], x1 = 0.6583 | 863.76 ± 0.62 | 859.36 ± 0.62 | 856.21 ± 0.63 | – | – | – | 0.8896 ± 0.015 | 0.8198 ± 0.014 | 0.7585 ± 0.013
[1], x1 = 0.7725 | 900.09 ± 0.59 | 895.52 ± 0.59 | 892.66 ± 0.59 | – | – | – | 0.9343 ± 0.016 | 0.8683 ± 0.015 | 0.799 ± 0.014
[1], x1 = 0.8798 | 940.35 ± 0.56 | 935.67 ± 0.56 | 933.11 ± 0.56 | – | – | – | 0.9984 ± 0.017 | 0.9296 ± 0.016 | 0.8558 ± 0.015
[1], x1 = 1 | 993.81 ± 0.53 | 989.15 ± 0.53 | 984.42 ± 0.53 | – | – | – | 1.085 ± 0.018 | 1.017 ± 0.017 | 0.9285 ± 0.016
[2], x1 = 0.1071 | – | – | – | 1.4198 ± 0.0011 | 1.4165 ± 0.0011 | 1.4131 ± 0.001 | – | – | –
[2], x1 = 0.1979 | – | – | – | 1.425 ± 0.0011 | 1.4218 ± 0.001 | 1.4186 ± 0.001 | – | – | –
[2], x1 = 0.31 | – | – | – | 1.4328 ± 0.0011 | 1.4297 ± 0.001 | 1.4269 ± 0.001 | – | – | –
[2], x1 = 0.409 | – | – | – | 1.4405 ± 0.0011 | 1.4374 ± 0.001 | 1.4349 ± 0.0009 | – | – | –
[2], x1 = 0.508 | – | – | – | 1.4495 ± 0.001 | 1.4467 ± 0.001 | 1.4443 ± 0.0009 | – | – | –
[2], x1 = 0.6 | – | – | – | 1.4591 ± 0.0011 | 1.4563 ± 0.001 | 1.4541 ± 0.0009 | – | – | –
[2], x1 = 0.686 | – | – | – | 1.4694 ± 0.001 | 1.4667 ± 0.001 | 1.4645 ± 0.0009 | – | – | –
[2], x1 = 0.789 | – | – | – | 1.4831 ± 0.001 | 1.4803 ± 0.001 | 1.4784 ± 0.0009 | – | – | –
[2], x1 = 0.887 | – | – | – | 1.4973 ± 0.0011 | 1.4947 ± 0.0009 | 1.4927 ± 0.0008 | – | – | –
[2], x1 = 1 | – | – | – | 1.5161 ± 0.0009 | 1.5141 ± 0.0009 | 1.5129 ± 0.0009 | – | – | –

COc1ccccc1 [anisole] + CCCCCCCC
Settings | mass density, 293.15 K [kg/m3] | mass density, 298.15 K [kg/m3] | mass density, 303.15 K [kg/m3] | refractive index, 293.15 K | refractive index, 298.15 K | refractive index, 303.15 K | viscosity, 293.15 K [mPa·s] | viscosity, 298.15 K [mPa·s] | viscosity, 303.15 K [mPa·s]
[1], x1 = 0.1031 | 722.82 ± 0.81 | 718.75 ± 0.82 | 714.63 ± 0.82 | – | – | – | 0.5523 ± 0.01 | 0.5195 ± 0.0097 | 0.4917 ± 0.0093
[1], x1 = 0.2253 | 749.02 ± 0.77 | 744.78 ± 0.78 | 740.6 ± 0.78 | – | – | – | 0.568 ± 0.01 | 0.5349 ± 0.0099 | 0.5042 ± 0.0095
[1], x1 = 0.3001 | 766.32 ± 0.74 | 762.01 ± 0.75 | 757.77 ± 0.76 | – | – | – | 0.5825 ± 0.011 | 0.5446 ± 0.01 | 0.5166 ± 0.0096
[1], x1 = 0.4 | 791.02 ± 0.71 | 786.68 ± 0.72 | 782.37 ± 0.72 | – | – | – | 0.6136 ± 0.011 | 0.5719 ± 0.01 | 0.5434 ± 0.01
[1], x1 = 0.5092 | 820.49 ± 0.67 | 816.09 ± 0.68 | 811.7 ± 0.68 | – | – | – | 0.6541 ± 0.012 | 0.6157 ± 0.011 | 0.5779 ± 0.011
[1], x1 = 0.5998 | 847.08 ± 0.64 | 842.65 ± 0.64 | 838.17 ± 0.65 | – | – | – | 0.7026 ± 0.013 | 0.6542 ± 0.012 | 0.6162 ± 0.011
[1], x1 = 0.6977 | 878.22 ± 0.61 | 873.72 ± 0.61 | 869.19 ± 0.61 | – | – | – | 0.7639 ± 0.013 | 0.7153 ± 0.013 | 0.6729 ± 0.012
[1], x1 = 0.7998 | 913.74 ± 0.58 | 909.15 ± 0.58 | 904.54 ± 0.58 | – | – | – | 0.8456 ± 0.015 | 0.7845 ± 0.014 | 0.7453 ± 0.013
[1], x1 = 0.8975 | 950.96 ± 0.55 | 946.32 ± 0.56 | 941.63 ± 0.56 | – | – | – | 0.9497 ± 0.016 | 0.8917 ± 0.015 | 0.8289 ± 0.014
[1], x1 = 1 | 993.81 ± 0.53 | 989.15 ± 0.53 | 984.42 ± 0.53 | – | – | – | 1.085 ± 0.018 | 1.017 ± 0.017 | 0.9285 ± 0.016
[2], x1 = 0.106 | – | – | – | 1.405 ± 0.0009 | 1.4029 ± 0.0009 | 1.4004 ± 0.0009 | – | – | –
[2], x1 = 0.231 | – | – | – | 1.4158 ± 0.001 | 1.4136 ± 0.0009 | 1.4114 ± 0.0009 | – | – | –
[2], x1 = 0.307 | – | – | – | 1.423 ± 0.001 | 1.4208 ± 0.0009 | 1.4187 ± 0.0009 | – | – | –
[2], x1 = 0.3991 | – | – | – | 1.4324 ± 0.001 | 1.4303 ± 0.0009 | 1.4283 ± 0.0009 | – | – | –
[2], x1 = 0.503 | – | – | – | 1.444 ± 0.001 | 1.4419 ± 0.0009 | 1.44 ± 0.0009 | – | – | –
[2], x1 = 0.6 | – | – | – | 1.4562 ± 0.001 | 1.454 ± 0.0009 | 1.4522 ± 0.0009 | – | – | –
[2], x1 = 0.69 | – | – | – | 1.4683 ± 0.001 | 1.4661 ± 0.0009 | 1.4643 ± 0.0009 | – | – | –
[2], x1 = 0.796 | – | – | – | 1.4838 ± 0.001 | 1.4815 ± 0.0009 | 1.4797 ± 0.0009 | – | – | –
[2], x1 = 0.8822 | – | – | – | 1.4973 ± 0.001 | 1.495 ± 0.0009 | 1.4933 ± 0.0009 | – | – | –
[2], x1 = 1 | – | – | – | 1.5161 ± 0.0009 | 1.5141 ± 0.0009 | 1.5129 ± 0.0009 | – | – | –
